According to a melting point compilation (Tetko et al.; mined from patent text by program, amines drawn as free bases though some values may be those of a salt):

Compound | melting point [°C]
CCC(=O)N[C@@H](CC)c1nc2c(C(F)(F)F)cccc2c(O)c1C(=O)Nc1nccs1 | > 275
Brc1ccc(C2(Cn3cncn3)OCCO2)cc1 | 136
N#Cc1ccc(C=O)cc1F | 83
O=C(O)COc1ccc2c(c1)Cc1sc(SCCC(c3ccccc3)c3ccccc3)nc1-2 | 135 to 137
Cn1cnc(COc2nn3c(-c4ccccc4F)nnc3cc2-c2ccsc2)n1 | 216 to 218
CCc1ccc(-c2ccc3c(c2)C=C(C(=O)Nc2ccc(CN(C)C4CCOCC4)cc2)CCS3(=O)=O)cc1 | 257 to 260
CC1(C)OCC(c2nc3c(C(F)(F)F)cccc3c(O)c2C(=O)Nc2nccs2)O1 (centres undefined) | 250
O=Cc1cc([N+](=O)[O-])ccc1OC(F)(F)F | 32 to 34
COc1ccc(-c2cnc3ccc(-c4nnc(SCc5cccc(C#N)c5)o4)cn23)cc1 | 143 to 144
OC(c1cncs1)(c1cncs1)C(F)(F)F | 109 to 110
O=c1c2c([nH]n1-c1c(F)cc(Cl)c3nc(Cl)sc13)CCCC2 | 191 to 197
CC(C)C[C@H](NC(=O)OC(C)(C)C)[C@H](O)c1nccs1 | 121 to 122
CN1C[C@@H]2C[C@H]1CN2C(=O)N1CCC(c2[nH]nc3c2C(=O)c2c(NC(=O)NN4CCOCC4)cccc2-3)CC1 | 224 to 225
COc1ccccc1CNc1ccc2cc(Nc3ccccn3)ccc2n1 | 134
COc1cc(C(=O)N2Cc3ccc(C(=O)NCc4cccc(C)c4)n3Cc3ccccc32)ccc1-c1ccccc1C | 165 to 166
O=c1ccn(-c2cccc(S(=O)(=O)c3nc4ccccc4[nH]3)c2)nc1-c1ccnn1-c1ccccc1 | 160 to 161
NS(=O)(=O)c1ccc(-n2nc(C(F)(F)F)cc2-c2ccc(-c3cscn3)c(C(F)(F)F)c2)cn1 | 114
Cc1cccc2[nH]c3cc(O)ccc3c12 | 191
CSc1nc(NC2CCCCC2)c2nonc2n1 | 129 to 130
Cc1cnc(CCl)n2c1c(CCCl)c1ccccc12 | 160 to 161
CCCc1cc(O)cc2nc(-c3ccc(O)cc3)oc12 | 110 to 112
Cc1ncnc(-c2ccncc2)n1 | 99 to 102
CC(C)NC(=O)NNC=NC(=O)c1nc(F)c(N)nc1N | 221
O=C(O)c1ccc(OCCn2ccnc2)c(Cl)c1 | 204
CCCNC(=O)C(C)=Cc1ccc2c(c1)c(Cc1ccc(C(=O)NS(=O)(=O)c3ccccc3C)cc1OC)cn2C | 189 to 191

Compound | melting point [°C]
C=CCN(C)C(=O)/C=C/CSc1nc(N)cc(Cl)n1 | 140 to 142
CC(=O)C1=Nc2cc3c(c(C)c2=C1C)N=c1ccccc1=3 | 258 to 260
CS(=O)(=O)c1ccc(-n2cncc2-c2ccccc2)cc1 | 164
CN(C)c1c(C(N)=O)cnc2c(NC(=O)c3c(Cl)cccc3Cl)cccc12 | 222 to 223
Cc1cc2c(cc1C)N(C)c1cscc1C(=O)N2 | 260 to 262
CC(=O)OCc1ccc(S(=O)(=O)c2ccc(C)nc2Nc2c(C)cc(C)cc2C)cc1 | 132 to 134
Cn1ccc(=O)c(OCc2ccccc2)c1C(O)c1cccnc1 (centres undefined) | 169 to 174
CCc1cccc(C)c1CNc1cc(CNC)cn2nc(C)nc12 | 179
Nc1ccccc1-c1cnoc1 | 48 to 51
O=C1N=C(c2ccc(C(=O)Cl)cc2)C(c2ccc(C(=O)Cl)cc2)O1 (centres undefined) | > 300
Cc1c(N2CCN(Cc3ccccc3)C(C)(C)C2)c(F)cc2c(=O)c(C(=O)O)cn(C3CC3)c12 | 170 to 171
Nc1ccc(C2=NNC(=O)CC2)cc1N | 226
OCCCc1cnoc1-c1ccc2c(c1)OCO2 | 45 to 46
CCONC(=O)COc1cccc2c1c(C(=O)C(N)=O)c(CC)n2Cc1ccccc1 | 176 to 178
CC1(C)COC(c2ccc(-c3ccc4cc(O)ccc4c3)cc2)=N1 | 221 to 223
NCc1c(N)cccc1Oc1ccccc1 | 69 to 71
CN(C(=O)c1ccc2nonc2c1)C1CCC(=NO)CC1 (centres undefined) | 197 to 198
Cc1csc2[nH]c(=O)n(CCC(C(=O)NO)N(C)S(=O)(=O)c3ccc(Oc4ccccc4)cc3)c(=O)c12 (centres undefined) | 142 to 144
Nc1ncc(-c2cnc3[nH]c(=O)n(CC4CCCCC4)c3n2)cn1 | > 250
COc1ccc(Sc2ncccc2C(=O)NCC23CC4CC(CC(C4)C2)C3)cc1 | 130 to 131
COc1ccc(S(=O)(=O)C(Nc2c(Br)cc(C)cc2C(=O)O)c2cccnc2)cc1 (centres undefined) | 198
FC(F)Sc1nnc(-c2cnccn2)s1 | 113 to 115
CCCNC(=O)Cc1cnc2cccc(C)n2c1=O | 96 to 98
NCCCCC1Cc2ccc(C3=NNC(=O)CC3)cc2C1 (centres undefined) | 153 to 155
CC(C)(C)OC(=O)N[C@H]1C=C[C@@H](C(=O)O)C1 | 153 to 155

Compound | melting point [°C]
CCCc1c2c(nn1-c1ccccc1)c(=O)[nH]c1ccccc12 | > 300
O=c1[nH]nc2n1-c1ccc(Cl)cc1C(c1ccccc1F)=CC2 | 223 to 225
Cc1nc2cc(Sc3cccc4cnccc34)c([N+](=O)[O-])cc2s1 | 217 to 220
Nc1c(Cl)cc(C(O)CNCCCCCCOCCCc2ccc(Br)cn2)cc1Cl (centres undefined) | 52 to 55
[N-]=[N+]=C(C(=O)CCc1ccccc1)C(=O)CCc1ccccc1 | 62.6 to 64
ONC(=S)C=Cc1cccc2ccccc12 | 129 to 130
CCC1OC(=O)CC(O)C(C)C(OC2OC(C)CC(N(C)C)C2O)C(CC=O)CC(C)C(=O)C=CC2(C)OC2C1C (centres undefined) | 128 to 130
O=C(OCCOCc1ccccc1)n1c(-c2cscn2)nc2ccccc21 | 93 to 95
CCCSc1cc2c(c3c1OC(C)(C)C3)C(c1cccc(C(=O)OCC)c1)=NC(C)(C)C2 | 83 to 84
CCC(=O)Nc1c(C(=O)c2ncccc2CO)[nH]c2cc(Cl)ccc12 | 198 to 199
Cn1c(=O)c(-c2ccc(Cl)cc2Cl)cc2c3cc(-c4nc(NC(=O)C5CC5)no4)ccc3n(C)c21 | 292 to 295
CC(C)CN1CCS(=O)(=O)c2sc(S(N)(=O)=O)cc2C1 | 149 to 151
O=C(O)CC1(CS)CC1 | 42 to 45
Nc1nc2cc(-c3ccccc3)ccc2c2c1ncn2CCCN1CCCC1=O | 201 to 204
CCOC(=O)c1sc2nc(CBr)c(CC)c(=O)n2c1C | 146 to 148
NC(=O)c1cc(F)c(F)c(Cl)c1Cl | 153 to 155
COc1ccc(-c2cc(=S)n(CC=Cc3ccc(F)cc3F)nc2-c2ccc(OC)cc2)cc1 | 141
Cc1ccc2c(c1)C(OC(C)C)=C(C(=O)O)S2=O (centres undefined) | 184 to 187
COCC1CN(c2ccc(C3CCN(C(=O)C=Cc4ccccc4)CC3)cc2)C(=O)O1 (racemic) | 136 to 138
N#Cc1c(CCl)[nH]c(=O)[nH]c1=O | 229
Fc1ccc(/C=C/c2nc(COc3ccc(CCCCn4ccnn4)cc3)co2)c(F)c1 | 115 to 117
COC(=O)Cc1nsc(NC(=O)OC)n1 | 167 to 169
Cc1[nH]c(=O)[nH]c1C(=O)c1ccc(N2CCCCC2)cc1 | 260 to 263
CC(=O)NCCC1CCc2ccc3nc(CO)oc3c21 (centres undefined) | 132 to 134
COC(=O)C1=Cc2cc(-c3ccc(OC(F)(F)F)cc3)ccc2S(=O)(=O)CC1 | 142 to 143

Compound | melting point [°C]
COC(=O)NC(C(=O)O)c1ccc([N+](=O)[O-])cc1 (centres undefined) | 152
Fc1ccc(-c2ncn(C3CCNCC3)c2-c2cccnc2Oc2ccc(OCc3ccccc3)cc2)cc1 | 178 to 179
COc1ccc(C(=O)Nc2ccccc2)cc1NCc1cc(C)cc(C)c1 | 168 to 170
O=[N+]([O-])c1cc(CSC2OC(CO)C(OC3OC4COC(c5ccccc5)OC4C(O)C3O)C(O)C2O)ccc1Cl (centres undefined) | 120 to 122
CCCCNC(=O)Nc1nc2cc(CN3CCN(C(c4ccccc4)c4ccccc4)CC3)ccc2n1C | 196
COc1cc(C=CC(=O)OC2CC3CC(OC(=O)c4cc(OC)c(OC)c(OC)c4)CC2N3C)cc(OC)c1OC (centres undefined) | 40 to 42
C=CCOc1ccccc1N(CC(O)CNC(C)C)S(C)(=O)=O (centres undefined) | 139 to 141
O=C(NCC#CCN1CCOCC1)N1c2ccccc2-c2noc3c2C1CCC3 (centres undefined) | 186
Cc1cc(OC/C=C(/c2ccc(Cl)cc2)c2ccc(C#CC(C)(C)C)cc2)ccc1OCC(=O)O | 144 to 147
CCN(CC)S(=O)(=O)c1ccc(N2N=C(C)C(=CNc3ccccc3OC)C2=O)cc1 | 191
CC(C)(C)c1ccc(C(=O)c2c(N)sc3c2CCN(Cc2ccccc2)C3)cc1 | 124 to 125
CC(C)Nc1nc(N)nc(-c2ccccc2)c1-c1ccc(=O)n(C(C)C)n1 | 234 to 236
CCn1cc(C(=O)NC2Cc3ccccc3C2)c(=O)c2cnc(N3CCCC3)nc21 | 252 to 253
COc1cc(Nc2nccc(-c3nc(C)c(C)s3)n2)cc(OC)c1OC | 207
C#Cc1cnn2c(C(F)(F)F)cc(-c3cccc(C(F)(F)F)c3)nc12 | 154
CN(C)C=C(C(=O)c1ccccc1)c1ccc(F)cc1 | 115 to 116
O=C1[C@H](O)[C@@H](O)C(=O)N1Cc1ccccc1 | 100
NC(=O)c1ncn(CCCc2ccc(OCc3coc(/C=C/c4ccccc4)n3)cc2)c1C(N)=O | 194 to 195
C#CCNC(=O)C(F)(F)F | 31 to 33
COC(=O)Cc1cc(OCc2ccccc2)ccc1OC | 74 to 75
Cc1ccccc1-c1c(NC(=O)Nc2c(C)cccc2C)c(=O)oc2c(F)cc(F)cc12 | 221 to 222
COc1ccc2c(c1)cc(-c1nc(C)no1)n2-c1ccc(CNC(=O)C2(NC(=O)OC(C)(C)C)CC2)cc1 | 212 to 214
CC(C)(C)OC(=O)Nc1ccc(-c2ccccc2F)cc1N | 100 to 103
Cc1nc(-c2ccc(C(F)(F)F)cc2)sc1CSc1ccc(OCC(=O)O)c2ccccc12 | 181 to 183
